Reference: ChEMBL document CHEMBL1153520, “A multivalent approach to the design and discovery of orally efficacious 5-HT4 receptor agonists” (J Med Chem, 2009)

Experiments:
[1] = biological target: T1, 5-hydroxytryptamine receptor 4 (Homo sapiens, UniProt Q13639); experiment: Displacement of [H]GR-113808 from human 5HT4C receptor expressed in HEK293 cells by liquid scintillation counting; type: cell-based
Homo sapiens = species on record: Homo sapiens; experiment: Selectivity ratio of Ki for human 5HT3A receptor to Ki for human 5HT4C receptor
[2] = biological target: T1, 5-hydroxytryptamine receptor 4; experiment: Agonist activity at human 5HT4C receptor expressed in HEK293 cells assessed as accumulation of cAMP by flash plate adenylyl cyclase activation assay; type: functional, cell-based
[3] = biological target: T1, 5-hydroxytryptamine receptor 4; experiment: Intrinsic activity at human 5HT4C receptor expressed in HEK293 cells assessed as accumulation of cAMP by flash plate adenylyl cyclase activation assay relative to serotonin; type: functional, cell-based

T1 sequence (Q13639 whole entry): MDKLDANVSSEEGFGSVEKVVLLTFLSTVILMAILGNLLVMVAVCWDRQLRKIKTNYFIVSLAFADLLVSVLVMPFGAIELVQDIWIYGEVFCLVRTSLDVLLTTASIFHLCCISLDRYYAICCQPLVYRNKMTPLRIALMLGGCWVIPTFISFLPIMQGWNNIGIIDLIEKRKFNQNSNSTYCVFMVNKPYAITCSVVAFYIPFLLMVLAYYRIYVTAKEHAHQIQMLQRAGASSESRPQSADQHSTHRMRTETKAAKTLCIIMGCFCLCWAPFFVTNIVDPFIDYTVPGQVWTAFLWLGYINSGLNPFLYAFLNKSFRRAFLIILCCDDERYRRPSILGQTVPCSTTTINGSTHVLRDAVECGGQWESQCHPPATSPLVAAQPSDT

SMILES | Ki [1] | Ratio Ki (Homo sapiens) | EC50 [2] | Intrinsic activity [3]
COc1cc(N)c(Cl)cc1C(=O)NC1CCN(CCCCCCCCO)CC1 | 79.4 nM | 29 | 15.8 nM | > 100%
CC(C)n1c(=O)c(C(=O)N[C@H]2C[C@H]3CC[C@@H](C2)N3CCCCCO)cc2ccccc21 | 63.1 nM | 460 | 25.1 nM | > 100%
COc1cc(N)c(Cl)cc1C(=O)NC1CCN(CCCCCN2C(=O)c3ccccc3C2=O)CC1 | 20 nM | 120 | 5.01 nM | > 100%
COc1cc(N)c(Cl)cc1C(=O)NC1CCN(CCS(=O)(=O)O)CC1 | 25100 nM | 1.5 | 1580 nM | > 100%
CC(C)n1c(=O)c(C(=O)N[C@H]2C[C@H]3CC[C@@H](C2)N3CCN2CCN(S(C)(=O)=O)CC2)cc2ccccc21 | 63.1 nM | 450 | 6.31 nM | > 100%
CC(C)n1c(=O)c(C(=O)N[C@H]2C[C@H]3CC[C@@H](C2)N3CCCCCN(C)CCc2c[nH]c3ccccc23)cc2ccccc21 | 3.16 nM | 6000 | 0.631 nM | > 100%
CC(C)n1c(=O)c(C(=O)N[C@H]2C[C@H]3CC[C@@H](C2)N3)cc2ccccc21 | 251 nM | 0.85 | 12.6 nM | > 100%
CC(C)n1nc(C(=O)N[C@H]2C[C@H]3CC[C@@H](C2)N3)c2ccccc21 | 63.1 nM | 0.092 | 39.8 nM | 94%
CC(C)n1c(=O)c(C(=O)N[C@H]2C[C@H]3CC[C@@H](C2)N3CCCCCCCCN2CCN(S(C)(=O)=O)CC2)cc2ccccc21 | 15.8 nM | 2100 | 3.16 nM | > 100%
COc1cc(N)c(Cl)cc1C(=O)NCC1CCNCC1 | 316 nM | 0.12 | 398 nM | 81%
CC(C)n1c(=O)c(C(=O)N[C@H]2C[C@H]3CC[C@@H](C2)N3CCO)cc2ccccc21 | 126 nM | 3.2 | 31.6 nM | > 100%
CCCCCCCCN1CCC(NC(=O)c2cc(Cl)c(N)cc2OC)CC1 | 79.4 nM | 23 | 39.8 nM | > 100%
COc1cc(N)c(Cl)cc1C(=O)NC1CCN(CCN2C(=O)c3ccccc3C2=O)CC1 | 7940 nM | 13 | 631 nM | 94%
COc1cc(N)c(Cl)cc1C(=O)NC1CCN(CCCCCN(C)CCc2c[nH]c3ccccc23)CC1 | 1.58 nM | 12000 | 1.26 nM | > 100%
CCN1CCC(NC(=O)c2cc(Cl)c(N)cc2OC)CC1 | 1000 nM | 4.2 | 79.4 nM | > 100%
CC(C)n1c(=O)c(C(=O)N[C@H]2C[C@H]3CC[C@@H](C2)N3CCCCCCCCS(=O)(=O)O)cc2ccccc21 | 63.1 nM | 230 | 20 nM | > 100%
CC(C)n1c(=O)c(C(=O)N[C@H]2C[C@H]3CC[C@@H](C2)N3CCN(C)CCc2c[nH]c3ccccc23)cc2ccccc21 | 39.8 nM | 480 | 1.26 nM | 92%
CCCCCN1CCC(NC(=O)c2cc(Cl)c(N)cc2OC)CC1 | 100 nM | 33 | 25.1 nM | > 100%
CCCCCCCCN1[C@@H]2CC[C@H]1C[C@@H](NC(=O)c1cc3ccccc3n(C(C)C)c1=O)C2 | 63.1 nM | 150 | 39.8 nM | > 100%
CCCCCN1[C@@H]2CC[C@H]1C[C@@H](NC(=O)c1cc3ccccc3n(C(C)C)c1=O)C2 | 63.1 nM | 890 | 39.8 nM | > 100%
CC(C)n1c(=O)c(C(=O)N[C@H]2C[C@H]3CC[C@@H](C2)N3CCCCCCCCO)cc2ccccc21 | 50.1 nM | 1100 | 15.8 nM | > 100%

SMILES | Ki [1] | Ratio Ki (Homo sapiens) | EC50 [2] | Intrinsic activity [3]
COc1cc(N)c(Cl)cc1C(=O)NCCN1CCNCC1 | 1260 nM | 1.1 | 501 nM | > 100%
CC(C)n1c(=O)c(C(=O)NCC2CCNCC2)cc2ccccc21 | 794 nM | 1.2 | 100 nM | > 100%
CC(C)n1c(=O)c(C(=O)N[C@H]2C[C@H]3CC[C@@H](C2)N3CCCCCS(=O)(=O)O)cc2ccccc21 | 1580 nM | 21 | 12.6 nM | > 100%
CC(C)n1c(=O)c(C(=O)N[C@H]2C[C@H]3CC[C@@H](C2)N3CCCCCN2CCN(S(C)(=O)=O)CC2)cc2ccccc21 | 15.8 nM | 2800 | 1.26 nM | > 100%
COc1cc(N)c(Cl)cc1C(=O)NC1CCN(CCCCCS(=O)(=O)O)CC1 | 6310 nM | 0.15 | 398 nM | 93%
CC(C)n1c(=O)n(C(=O)NC2CCNCC2)c2ccccc21 | 1580 nM | 0.019 | 316 nM | > 100%
CC(C)n1nc(C(=O)NC2CCNCC2)c2ccccc21 | 398 nM | 0.52 | 200 nM | 50%
COc1cc(N)c(Cl)cc1C(=O)NC1CCN(CCCCCN2CCCCC2)CC1 | 10 nM | 990 | 5.01 nM | > 100%
COc1cc(N)c(Cl)cc1C(=O)NC1CCN(CCCCCCCCN(C)CCc2c[nH]c3ccccc23)CC1 | 1.26 nM | 2800 | 0.794 nM | > 100%
COc1cc(N)c(Cl)cc1C(=O)NC1CCN(CCN2CCN(S(C)(=O)=O)CC2)CC1 | 126 nM | 21 | 20 nM | 97%
COc1cc(N)c(Cl)cc1C(=O)NC1CCN(CCO)CC1 | 200 nM | 1.9 | 63.1 nM | > 100%
COc1cc(N)c(Cl)cc1C(=O)NC1CCN(CCCCCO)CC1 | 63.1 nM | 110 | 15.8 nM | > 100%
CC(C)n1c(=O)c(C(=O)NC2CCNCC2)cc2ccccc21 | 3160 nM | 0.14 | 158 nM | > 100%
COc1ccc2[nH]cc(C(=O)NC3CCNCC3)c2c1 | 3160 nM | 6.7 |  | 0%
CC(C)n1c(=O)c(C(=O)N[C@H]2C[C@H]3CC[C@@H](C2)N3CCS(=O)(=O)O)cc2ccccc21 | 1000 nM | 49 | 6.31 nM | > 100%
CC(C)n1nc(C(=O)NCC2CCNCC2)c2ccccc21 | 7.94 nM | 3 |  | 0%
COc1cc(N)c(Cl)cc1C(=O)NC1CCN(CCCCCCCCN2C(=O)c3ccccc3C2=O)CC1 | 39.8 nM | 40 | 3.16 nM | 89%
CC(C)n1c(=O)c(C(=O)N[C@H]2C[C@H]3CC[C@@H](C2)N3CCCCCCCCN2CCCCC2)cc2ccccc21 | 3.16 nM | 9900 | 1.26 nM | 99%
CC(C)n1c(=O)n(C(=O)N[C@H]2C[C@H]3CC[C@@H](C2)N3)c2ccccc21 | 316 nM | 0.013 | 15.8 nM | > 100%
COc1ccc2[nH]cc(C(=O)NCCN3CCNCC3)c2c1 | 316 nM | 25 |  | 0%
